The values that follow come from patent publication US9102684B2, “Indolinone analogues” (Boehringer Ingelheim International GmbH, priority 2013, dated 2015).

The target in this experiment is T1, BRD4 (Homo sapiens, UniProt O60885).
T1 construct: fused on or other part: GST tag, fused on for capture by the AlphaLISA Glutathione Acceptor Beads
As to the kind of experiment: BRD4-H4 tetraacetylated Peptide Inhibition AlphaScreen. The format is binding. To be noted: GST-BRD4-BD1 (aa 44-168) or GST-BRD4-BD2 (aa 333-460) with biotinylated Acetyl-Histone H4 peptide; table does not state which bromodomain. How it is done:
Biological Methods BRD4-H4 tetraacetylated Peptide Inhibition AlphaScreen
Compounds are diluted in serial dilution 1:5 in assay buffer from 10 mM stock in DMSO (100 μM start concentration) in white OptiPlate-384 (PerkinElmer). A mix consisting of 15 nM GST-BRD4-BD1 protein (aa 44-168) or 150 nM GST-BRD4-BD2 (aa 333-460) and 15 nM biotinylated Acetyl-Histone H4 (LysS, 8, 12, 16) peptide is prepared in assay buffer (50 mM HEPES pH=7.4; 25 mM NaCl; 0.05% Tween 20; 0.1% bovine serum albumin (BSA); 10 mM dithiothreitol (DTT)). 6 μl of the mix is added to the compound dilutions. Subsequently, 6 μl of premixed AlphaLISA Glutathione Acceptor Beads and AlphaScreen Streptavidin Donor Beads from PerkinElmer (in assay buffer at a concentration of 10 μg/ml each) are added and the samples are incubated for 30 min at RT in the dark (shaking 300 rpm). Afterwards, the signal is measured in a PerkinElmer Envision HTS
Multilabel Reader using the AlphaScreen protocol from PerkinElmer. Each plate contains negative controls where biotinylated Acetyl-Histone H4 peptide and GST-BRD4-BD1 or GST-BRD4-BD2 are left out and replaced by assay buffer. Negative control values are entered as low basis value when using the software GraphPad Prism for calculations. Furthermore, a positive control (probe molecule JQ1+ with protein/peptide mix) is pipetted. Determination of IC50 values are carried out using GraphPad Prism 3.03 software (or updates thereof).
In general, IC50 refers to the concentration needed to halve the response being measured. For the compound `Cc1noc(C)c1-c1ccc2c(c1)[C@](O)(c1ccccc1)C(=O)N2` [Example 22, 5-(3,5-Dimethyl-isoxazol-4-yl)-3-hydroxy-3-phenyl-1,3-dihydro-indol-2-one], the IC50 is 48 nM.
The result for `Cc1noc(C)c1-c1ccc2c(c1)C(O)(c1cccs1)C(=O)N2` (centres unmarked) [Example 26, 5-(3,5-Dimethyl-isoxazol-4-yl)-3-hydroxy-3-thiophen-2-yl-1,3-dihydro-indol-2-one] reads 320 nM.
The result for `Cc1noc(C)c1-c1ccc2c(c1)C(O)(C1CCCC1)C(=O)N2` (centres unmarked) [Example 27, 3-Cyclopentyl-5-(3,5-dimethyl-isoxazol-4-yl)-3-hydroxy-1,3-dihydro-indol-2-one] reads 698 nM; that for `Cc1noc(C)c1-c1ccc2c(c1)C(O)(c1ccc(F)c(F)c1)C(=O)N2` (centres unmarked) [Example 28, 3-(3,4-Difluoro-phenyl)-5-(3,5-dimethyl-isoxazol-4-yl)-3-hydroxy-1,3-dihydro-indol-2-one], 203 nM.
`Cc1noc(C)c1-c1ccc2c(c1)[C@H](c1ccccc1)N(C)C2=O` [Example 9, (S)-5-(3,5-Dimethyl-isoxazol-4-yl)-2-methyl-3-phenyl-2,3-dihydro-isoindol-1-one]: the IC50 came out at 14 nM. Compared with the last compound, the IC50 is about 14-fold lower.
The result for `Cc1noc(C)c1-c1ccc2c(c1)C(c1ccccc1)N(CCCN(C)C)C2=O` (centres unmarked) [Example 3, 2-(3-Dimethylamino-propyl)-5-(3,5-dimethyl-isoxazol-4-yl)-3-phenyl-2,3-dihydro-isoindol-1-one] reads 43 nM.
The value for `Cc1noc(C)c1-c1ccc2c(c1)C(O)(C1CCOCC1)C(=O)N2` (centres unmarked) [Example 34, 5-(3,5-Dimethyl-isoxazol-4-yl)-3-hydroxy-3-(tetrahydro-pyran-4-yl)-1,3-dihydro-indol-2-one] was 1570 nM; that for `Cc1cncc(C2(O)C(=O)Nc3ccc(-c4c(C)noc4C)cc32)c1` (centres unmarked) [Example 35, 5-(3,5-Dimethyl-isoxazol-4-yl)-3-hydroxy-3-(5-methyl-pyridin-3-yl)-1,3-dihydro-indol-2-one] was 1040 nM.
The compound `Cc1noc(C)c1-c1ccc2c(c1)C(c1ccccc1)N(C)C2=O` (centres unmarked) [Example 8, 5-(3,5-Dimethyl-isoxazol-4-yl)-2-methyl-3-phenyl-2,3-dihydro-isoindol-1-one] had an IC50 of 55 nM.
The value for `Cc1noc(C)c1-c1ccc2c(c1)C(O)(c1ccccc1)C(=O)N2` (centres unmarked) [Example 21, 5-(3,5-Dimethyl-isoxazol-4-yl)-3-hydroxy-3-phenyl-1,3-dihydro-indol-2-one] was 259 nM; that for `Cc1noc(C)c1-c1ccc2c(c1C)C(c1ccccc1)OC2=O` (centres unmarked) [Example 17, 5-(3,5-Dimethyl-isoxazol-4-yl)-4-methyl-3-phenyl-3H-isobenzofuran-1-one] was 1080 nM; that for `Cc1noc(C)c1-c1ccc2c(c1)C(O)(C1CCCCC1)C(=O)N2` (centres unmarked) [Example 30, 3-cyclohexyl-5-(3,5-dimethyl-isoxazol-4-yl)-3-hydroxy-1,3-dihydro-indol-2-one] was 196 nM.
The result for `Cc1noc(C)c1-c1ccc2c(c1)C1(c3ccccc3)OCCN1C2=O` (centres unmarked) [Example 14, 8-(3,5-Dimethyl-isoxazol-4-yl)-9b-phenyl-2,3-dihydro-9bH-oxazolo[2,3-a]isoindol-5-one] reads 72 nM.
The value for `Cc1noc(C)c1-c1ccc2c(c1)C(C)(c1ccccc1)N(C)C2=O` (centres unmarked) [Example 10, 5-(3,5-Dimethyl-isoxazol-4-yl)-2,3-dimethyl-3-phenyl-2,3-dihydro-isoindol-1-one] was 38 nM.
As to `Cc1noc(C)c1-c1ccc2c(c1)C(C)(c1ccccc1)C(=O)N2c1cccnc1` (centres unmarked) [Example 20, 5-(3,5-Dimethyl-isoxazol-4-yl)-3-methyl-3-phenyl-1-pyridin-3-yl-1,3-dihydro-indol-2-one], it took 242 nM to reach half-maximal inhibition (IC50).
The result for `Cc1noc(C)c1-c1ccc2c(c1)C1(c3ccccc3)OCCCN1C2=O` (centres unmarked) [Example 15, 9-(3,5-Dimethyl-isoxazol-4-yl)-10b-phenyl-3,4-dihydro-2H,10bH-[1,3]oxazino[2,3-a]isoindol-6-one] reads 36 nM; that for `Cc1noc(C)c1-c1ccc2c(c1)C(O)(c1ccc(Cl)cc1)C(=O)N2` (centres unmarked) [Example 25, 3-(4-Chloro-phenyl)-5-(3,5-dimethyl-isoxazol-4-yl)-3-hydroxy-1,3-dihydro-indol-2-one], 295 nM; that for `Cc1noc(C)c1-c1ccc2c(c1)C(C1CCCCC1)N(C)C2=O` (centres unmarked) [Example 6, 3-Cyclohexyl-5-(3,5-dimethyl-isoxazol-4-yl)-2-methyl-2,3-dihydro-isoindol-1-one], 43 nM.
The result for `Cc1noc(C)c1-c1ccc2c(c1)C(C)(c1ccccc1)C(=O)N2` (centres unmarked) [Example 18, 5-(3,5-Dimethyl-isoxazol-4-yl)-3-methyl-3-phenyl-1,3-dihydro-indol-2-one] reads 54 nM; that for `Cc1noc(C)c1-c1ccc2c(c1)C(O)(c1cccnc1)C(=O)N2` (centres unmarked) [Example 31, 5-(3,5-Dimethyl-isoxazol-4-yl)-3-hydroxy-3-pyridin-3-yl-1,3-dihydro-indol-2-one], 395 nM.
Turning to `Cc1noc(C)c1-c1ccc2c(c1)C(c1ccccc1)N(C1CCN(C)CC1)C2=O` (centres unmarked) [Example 2, 5-(3,5-Dimethyl-isoxazol-4-yl)-2-(1-methyl-piperidin-4-yl)-3-phenyl-2,3-dihydro-isoindol-1-one], 57 nM corresponded to half-maximal inhibition (IC50).
The value for `COc1c(-c2c(C)noc2C)ccc2c1C(c1ccccc1)OC2=O` (centres unmarked) [Example 16, 5-(3,5-Dimethyl-isoxazol-4-yl)-4-methoxy-3-phenyl-3,1-isobenzofuran-1-one] was 350 nM; that for `Cc1noc(C)c1-c1ccc2c(c1)C(C1CCC3(CCC3)CC1)N(C)C2=O` (centres unmarked) [Example 7, 5-(3,5-Dimethyl-isoxazol-4-yl)-2-methyl-3-spiro[3.5]non-7-yl-2,3-dihydro-isoindol-1-one] was 1090 nM.
The value for `Cc1noc(C)c1-c1ccc2c(c1)C(O)(c1ccccc1CN1CCOCC1)C(=O)N2` (centres unmarked) [Example 23, 5-(3,5-Dimethyl-isoxazol-4-yl)-3-hydroxy-3-(2-morpholin-4-ylmethyl-phenyl)-1,3-dihydro-indol-2-one] was 176 nM; that for `Cc1noc(C)c1-c1ccc2c(c1)C(c1ccccc1)N(C(C)C)C2=O` (centres unmarked) [Example 12, 5-(3,5-Dimethyl-isoxazol-4-yl)-2-isopropyl-3-phenyl-2,3-dihydro-isoindol-1-one] was 75 nM; that for `Cc1ccccc1C1(O)C(=O)Nc2ccc(-c3c(C)noc3C)cc21` (centres unmarked) [Example 33, 5-(3,5-Dimethyl-isoxazol-4-yl)-3-hydroxy-3-o-tolyl-1,3-dihydro-indol-2-one] was 1060 nM.
The compound `COc1cc(F)cc(C2c3cc(-c4c(C)noc4C)ccc3C(=O)N2C)c1` (centres unmarked) [Example 1, 5-(3,5-Dimethyl-isoxazol-4-yl)-3-(3-fluoro-5-methoxy-phenyl)-2-methyl-2,3-dihydro-isoindol-1-one] displayed an IC50 of 380 nM.
Compound `Cc1noc(C)c1-c1ccc2c(c1)[C@](O)(c1ccccc1CN1CCOCC1)C(=O)N2` [Example 24, 5-(3,5-Dimethyl-isoxazol-4-yl)-3-hydroxy-3-(2-morpholin-4-ylmethyl-phenyl)-1,3-dihydro-indol-2-one] registered an IC50 of 41 nM.
The value for `Cc1noc(C)c1-c1ccc2c(c1)C(C)(c1ccccc1)C(=O)N2C` (centres unmarked) [Example 19, 5-(3,5-Dimethyl-isoxazol-4-yl)-1,3-dimethyl-3-phenyl-1,3-dihydro-indol-2-one] was 275 nM; that for `Cc1noc(C)c1-c1ccc2c(c1)C(c1ccccc1)N(CCN(C)C)C2=O` (centres unmarked) [Example 4, 2-(2-Dimethylamino-ethyl)-5-(3,5-dimethyl-isoxazol-4-yl)-3-phenyl-2,3-dihydro-isoindol-1-one] was 65 nM; that for `Cc1cc(-c2c(C)noc2C)cc2c1C(=O)N(C)C2c1ccccc1` (centres unmarked) [Example 11, 5-(3,5-Dimethyl-isoxazol-4-yl)-2,7-dimethyl-3-phenyl-2,3-dihydro-isoindol-1-one] was 2490 nM.
The value for `Cc1noc(C)c1-c1ccc2c(c1)C(c1ccccc1)OC2=O` (centres unmarked) [Example 13, 5-(3,5-Dimethyl-isoxazol-4-yl)-3-phenyl-3H-isobenzofuran-1-one] was 193 nM; that for `Cc1noc(C)c1-c1ccc2c(c1)C(O)(c1ccccn1)C(=O)N2` (centres unmarked) [Example 32, 5-(3,5-Dimethyl-isoxazol-4-yl)-3-hydroxy-3-pyridin-2-yl-1,3-dihydro-indol-2-one] was 332 nM; that for `Cc1noc(C)c1-c1ccc2c(c1)C(O)(c1ccc3c(c1)OCO3)C(=O)N2` (centres unmarked) [Example 29, 3-Benzo[1,3]dioxol-5-yl-5-(3,5-dimethyl-isoxazol-4-yl)-3-hydroxy-1,3-dihydro-indol-2-one] was 541 nM.
The value for `Cc1noc(C)c1-c1ccc2c(c1)C(c1cc(F)cc(F)c1)N(C)C2=O` (centres unmarked) [Example 5, 3-(3,5-Difluoro-phenyl)-5-(3,5-dimethyl-isoxazol-4-yl)-2-methyl-2,3-dihydro-isoindol-1-one] was 229 nM.
